Assay results reported in patent US11369569B2, “Target-specific delivery of therapeutic agents” (University of Virginia Patent Foundation, priority 2015, dated 2022).
Where two headings read alike, the source gives them in different places.

Tests used:
[1] = target: T1, VEGFR2 (Mus musculus, UniProt P35918); format: in vivo; conditions: for Vessel volume fraction (VVF) in infarct region: day 7 post-MI
T1 construct: from tissue; host or cells: endothelium of infarct/border zone in mouse heart (in vivo)
T1 sequence (P35918 20-1345): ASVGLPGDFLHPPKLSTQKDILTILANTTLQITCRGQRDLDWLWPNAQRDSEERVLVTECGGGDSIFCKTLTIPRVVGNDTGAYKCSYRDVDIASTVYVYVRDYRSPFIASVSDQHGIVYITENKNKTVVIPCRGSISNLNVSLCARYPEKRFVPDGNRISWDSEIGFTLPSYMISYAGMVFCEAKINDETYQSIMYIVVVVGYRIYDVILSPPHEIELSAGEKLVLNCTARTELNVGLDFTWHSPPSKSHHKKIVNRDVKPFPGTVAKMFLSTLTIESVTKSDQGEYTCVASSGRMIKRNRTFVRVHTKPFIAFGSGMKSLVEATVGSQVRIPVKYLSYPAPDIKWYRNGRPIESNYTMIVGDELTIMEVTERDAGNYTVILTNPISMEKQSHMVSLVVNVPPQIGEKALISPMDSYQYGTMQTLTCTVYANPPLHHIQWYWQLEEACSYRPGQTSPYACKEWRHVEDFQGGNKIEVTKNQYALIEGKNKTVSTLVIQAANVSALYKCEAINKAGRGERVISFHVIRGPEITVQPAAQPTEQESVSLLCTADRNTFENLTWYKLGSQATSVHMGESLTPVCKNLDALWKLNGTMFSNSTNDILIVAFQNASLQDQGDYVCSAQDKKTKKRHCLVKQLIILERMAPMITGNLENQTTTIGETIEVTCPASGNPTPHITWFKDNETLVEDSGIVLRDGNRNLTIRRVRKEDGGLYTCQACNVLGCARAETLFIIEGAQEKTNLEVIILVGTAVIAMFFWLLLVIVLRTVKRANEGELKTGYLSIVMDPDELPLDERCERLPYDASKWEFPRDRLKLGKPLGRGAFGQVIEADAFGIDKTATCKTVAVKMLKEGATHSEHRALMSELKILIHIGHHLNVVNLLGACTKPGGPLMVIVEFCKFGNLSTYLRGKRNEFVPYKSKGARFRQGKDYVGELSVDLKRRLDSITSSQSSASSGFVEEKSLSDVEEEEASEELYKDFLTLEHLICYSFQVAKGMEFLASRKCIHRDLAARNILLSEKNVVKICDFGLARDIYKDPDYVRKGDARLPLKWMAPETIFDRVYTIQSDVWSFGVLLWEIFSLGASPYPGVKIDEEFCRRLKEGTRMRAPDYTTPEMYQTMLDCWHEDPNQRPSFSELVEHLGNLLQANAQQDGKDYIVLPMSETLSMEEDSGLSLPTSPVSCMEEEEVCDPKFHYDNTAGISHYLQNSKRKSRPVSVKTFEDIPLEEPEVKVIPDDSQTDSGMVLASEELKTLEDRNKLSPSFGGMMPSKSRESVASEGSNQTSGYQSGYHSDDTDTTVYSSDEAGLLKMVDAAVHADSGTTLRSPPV

[2] = test system: cell types of interest in the infarct/border zone; assay: Immunofluorescence of heart sections to identify cell types bound by phage clones; format: in vivo, mice; conditions: immunostaining
Procedure: Following ex vivo imaging of heart and liver, hearts from the mice under study were fixed in 4% paraformaldehyde for 1 h followed by equilibration in 30% sucrose for overnight at 4° C. The hearts were washed 3-4 times in DPBS (Dulbecco's phosphate-buffered saline) and placed in OCT medium (Sakura Finetek USA, Inc, Torrance, Calif.) and frozen by placing over liquid N2 vapors. The embedded tissue samples cut into 5-7 μm sections using a cryostat (Leica Microsystems Inc, Buffalo Grove, Ill.), for subsequent imaging with a fluorescence microscope fitted with appropriate filter sets (Olympus BX41). Cell types of interest in the infarct/border zone were identified by immunohistochemistry using the following antibodies: rat anti-mouse CD 31 at 1:250 dilution (endothelial marker)(BD Biosciences, San Jose, Calif.), rat anti-mouse myoglobin at 1:200 (cardiomyocyte marker) (Santa Cruz Biotechnology Inc, Dallas, Tex.), anti-alpha-smooth muscle actin (aSMA) conjugated with Alexa Fluor 488 at 1:200 (myofibroblast marker) (Sigma Chemical Co., St. Louis, Mo.), and rabbit anti-mouse c-Kit at 1:150 (cardiac progenitor cell marker) (Santa Cruz Biotechnology Inc, Dallas, Tex.). […] Appropriate secondary antibodies were employed as needed to identify the primary antibodies:goat anti-rat Alexa Fluor 488 (1:250) and goat anti-rabbit Alexa Fluor 488 (1:250) (Abcam, Cambridge, Mass.). Binding of I-1 and B-50 phage clones to cardiomyocytes and c-Kit+ cells was determined by flow cytometry. The RL-14 cardiomyocyte cell line (ATCC) was used to test the binding of fluorescently labeled I-1 phage (VivoTag 645) and myocardial infarct derived cardiac and bone marrow cells to test the binding of fluorescently labeled B-50 phage (VivoTag 680).

[3] = target: T2, CRIP-2 (Mus musculus, UniProt Q9DCT8); design: reference not given here; conditions: via binding to CRIP-2 in myocardium and endothelium; cited from earlier work
T2 construct: host or cells: myocardium and endothelium of the heart
T2 sequence (Q9DCT8 1-208): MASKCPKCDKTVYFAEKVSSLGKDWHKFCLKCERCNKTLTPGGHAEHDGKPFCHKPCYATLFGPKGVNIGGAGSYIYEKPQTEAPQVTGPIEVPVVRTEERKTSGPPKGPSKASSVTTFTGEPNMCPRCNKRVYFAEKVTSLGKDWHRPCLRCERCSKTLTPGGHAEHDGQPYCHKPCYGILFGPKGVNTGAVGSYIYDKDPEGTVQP

[4] = test system: cell types of interest in the infarct/border zone; assay: Immunofluorescence co-localization of peptide-conjugated liposomes with cell markers (JACoP, Mander's overlap); format: in vivo, mice; conditions: post-MI hearts
[5] = target: T3, EF fragment of Hornerin (Homo sapiens, UniProt Q86YZ3); assay: Biolayer interferometry of B-40 binding to hornerin EF fragments; conditions: biotinylated B-40 peptide on streptavidin sensors
T3 construct: Different versions of the hornerin fragments containing EF domains were created; made in house
T3 sequence (Q86YZ3 1-81 limits assumed): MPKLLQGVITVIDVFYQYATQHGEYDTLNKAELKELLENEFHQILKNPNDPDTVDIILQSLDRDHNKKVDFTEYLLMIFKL
Procedure: FIG. 31 depicts biolayer interferometry to determine B-40 liposome binding to EF fragment of Hornerin. Using Fortebio octect system, B-40 liposomes binding to EF fragment was carried out. Streptavidin sensors were coated with Biotinylated EF fragments and their interaction with no peptide, I-1 and B-40 liposomes was tested.
FIG. 33 depicts biolayer interferometry to determine B-40 liposome binding to EF domains. Using Fortebio octect system, B-40 peptide binding to different EF fragments was carried out. Streptavidin sensors were coated with biotinylated B-40 peptide and its interaction with different fragments containing EF domains was carried out.

Row | Compound | Cell type / component for which phage clone is specific [2] | Cell type for which peptide conjugated liposomes are specific [4] | also measured
1 | Clc1ccc(Nc2nnc(Cc3ccncc3)c3ccccc23)cc1 [PTK787] | – | – | Percent effective in reducing neovessel formation ([1]; 20 mg/kg-d): 18%; Vessel volume fraction (VVF) in infarct region ([1]; 20 mg/kg-d): 0.052; Percent effective in reducing neovessel formation ([1]; 100 mg/kg-d): 65%; Vessel volume fraction (VVF) in infarct region ([1]; 100 mg/kg-d): 0.021; Vessel volume fraction (VVF) in infarct region ([1]; 100 mg/kg-d, listed as free PTK787): 0.022; Median (ED50, bootstrap) ([1]; 1000 nonparametric bootstrap data sets): 63 mg/kg-d; Estimated (ED50) ([1]; Imax model fit from vessel volume fraction): 63 mg/kg-d
2 | AMRPPLN (listed as Homo sapiens) [B-42] | cardiomyocytes | – | –
3 | ATMSRAP (listed as Homo sapiens) [B-47] | endothelial cells | – | –
4 | CRPPR [CRPPR-peptide] | – | – | Targeting to the heart [3]: 47 fold
5 | ESRQVTP (listed as Homo sapiens) [B-43] | extracellular matrix | – | –
6 | GLSQLQR (listed as Homo sapiens) [B-50] | c-Kit+ cells | c-Kit+ cells | –
7 | NCP: intentionally off-target peptide (Panc-27) previously shown to be specific for pancreatic cancer cells (KTLLPTP) [reference compound] | – | non-specifically taken up by macrophages | –
8 | RPPALAP (listed as Homo sapiens) [B-29] | myofibroblasts | myofibroblasts | –
9 | SDTWSSR (listed as Homo sapiens) [B-7] | myofibroblasts | – | –
10 | SHSNARS (listed as Homo sapiens) [B-27] | c-Kit+ cells | – | –
11 | SLLNRMP (listed as Homo sapiens) [B-40] | endothelial cells | endothelial cells | Binding to fragments containing EF domains [5]: possible binding partner
12 | TALPRLN (listed as Homo sapiens) [I-1] | cardiomyocytes | cardiomyocytes | –
13 | TMQHDG (listed as Homo sapiens) [B-11] | extracellular matrix | – | –
